From patent publication EP0185979A1, “A novel substance having anti-tumor activity, a microbiological process for the preparation thereof and its use as a medicament” (MICROBIAL CHEMISTRY RESEARCH FOUNDATION, priority 1984, dated 1986)
Converted amounts (≈) assume the structure as drawn.

Legend:
[1] = anti-tumor activity compared with streptonigrin; details: comparison with streptonigrin, no data given
[2] = cytotoxicity compared with streptonigrin; details: comparison with streptonigrin, no data given
[3] = tested on: cultured mouse leukemia cell P388; experiment: inhibition of growth of cultured cells; format: cell-based; details: read-out: median inhibition dose, ID50
Description: The anti-tumor activity of substance MG883-12F2 can be confirmed by measuring its ability to inhibit the growth of known cultured cells. For example, the median inhibition dose, ID50, of substance MG883-12F2 against cultured mouse leukemia cell P388 was 0.5 mg/ml.

SMILES: COc1ccc(-c2c(C)c(C(=O)O)nc(-c3ccc4c(n3)C(=O)C(N)=C(O)C4=O)c2N)c(O)c1OC [substance MG883-12F2]
- anti-tumor activity [1]: slightly inferior to streptonigrin
- cytotoxicity [2]: lower cytotoxicity
- IC50 [3]: 500 mg/L (≈ 1020 µM)
